Data taken from patent US9073821B2, “Hydroxamic acid derivative” (priority 2010, dated 2015).
Converted amounts (≈) assume the structure as drawn.

Each compound was assayed against Pseudomonas aeruginosa LpxC enzyme (Pseudomonas aeruginosa (strain ATCC 15692 / DSM 22644 / CIP 104116 / JCM 14847 / LMG 12228 / 1C / PRS 101 / PAO1), UniProt P47205) (assay: biochemical). Conditions: Table 1; read-out: Pseudomonas aeruginosa LpxC IC50.
Format: biochemical

| SMILES | IC50 [nM] |
| --- | --- |
| CNC(=O)C(C(=O)NO)N(C)C(=O)c1ccc(-c2ccc(C)cc2)cc1 (stereo not drawn) [Compound 5, N-hydroxy-N′-methyl-2-{methyl[(4′-methylbiphenyl-4-yl)carbonyl]amino}propanediamide] | 3.7 |
| CNC(=O)C(C(=O)NO)N(C)C(=O)c1ccc(-c2ccc3c(c2)CCN3C)cc1 (stereo not drawn) [Compound 40, N-hydroxy-N′-methyl-2-{methyl[4-(1-methyl-2,3-dihydro-1H-indol-5-yl)benzoyl]amino}propanediamide] | 4.7 |
| CNC(=O)C(C(=O)NO)N(C)C(=O)c1ccc(-c2ccc(C(F)(F)F)cc2)cc1 (stereo not drawn) [Compound 56, N-hydroxy-N′-methyl-2-(methyl {[4′-(trifluoromethyl)biphenyl-4-yl]carbonyl}amino)propanediamide] | 6.7 |
| CNC(=O)C(C(=O)NO)N(C)C(=O)c1ccc(-c2ccc(NCCCCCN3CCOCC3)cc2)cc1 (stereo not drawn) [Compound 58, N-hydroxy-N′-methyl-2-{methyl[(4′-{[5-(morpholin-4-yl)pentyl]amino}biphenyl-4-yl)carbonyl]amino}propanediamide] | 8.3 |
| CNC(=O)C(C(=O)NO)N(C)C(=O)c1ccc(-c2ccc3c(c2)OCC3)cc1 (stereo not drawn) [Compound 271, 2-{[4-(2,3-dihydro-1-benzofuran-6-yl)benzoyl](methyl)amino}-N-hydroxy-N′-methylpropanediamide] | 5 |

Same assay, conditions: inhibitory activity on Pseudomonas aeruginosa LpxC enzyme, class symbols A/B/C; read-out: Enzyme inhibitory activity

| IC50 [nM] | SMILES |
| --- | --- |
| < 10 | CNC(=O)C(C)(C(=O)NO)N(C)C(=O)c1ccc(C#Cc2ccccc2)cc1 (stereo not drawn) [Compound 345, N-hydroxy-N′,2-dimethyl-2-(methyl {[4-(phenylethynyl)phenyl]carbonyl}amino)propanediamide] |
| < 10 | CNC(=O)C(C(=O)NO)N(C)C(=O)c1ccc(-c2ccc(N(C)CC3CC3)cc2)cc1 (stereo not drawn) [Compound 85, 2-[({4′-[(cyclopropylmethyl)(methyl)amino]biphenyl-4-yl}carbonyl)(methyl)amino]-N-hydroxy-N′-methylpropanediamide] |
| > 100 | CN(C)C(=O)C(C(=O)NO)N(C)C(=O)c1ccc(-c2ccccc2)cc1 (stereo not drawn) [Compound 80, 2-[(biphenyl-4-ylcarbonyl)(methyl)amino]-N′-hydroxy-N,N-dimethylpropanediamide] |
| < 10 | CNC(=O)C(C(=O)NO)N(C)C(=O)c1ccc(-c2ccc(OCc3ccccc3)nc2)cc1 (stereo not drawn) [Compound 468, 2-[({4-[6-(benzyloxy)pyridin-3-yl]phenyl}carbonyl)(methyl)amino]-N-hydroxy-N′-methylpropanediamide] |
| > 100 | CN(C)CCNC(=O)C(NC(=O)c1ccc(-c2ccc(OCCO)cc2)cc1)C(=O)NO (stereo not drawn) [Compound 123, N-[2-(dimethylamino)ethyl]-N′-hydroxy-2-({[4′-(2-hydroxyethoxy)biphenyl-4-yl]carbonyl}amino)propanediamide] |
| > 100 | CNC(=O)C(C(=O)NO)N(C)C(=O)c1ccc(-c2ccccc2)cc1C (stereo not drawn) [Compound 21, N-hydroxy-N′-methyl-2-{methyl[(3-methylbiphenyl-4-yl)carbonyl]amino}propanediamide] |
| 10 to 100 | CCNC(=O)C(NC(=O)c1ccc(-c2ccc(OCCO)cc2)cc1)C(=O)NO (stereo not drawn) [Compound 139, N-ethyl-N′-hydroxy-2-({[4′-(2-hydroxyethoxy)biphenyl-4-yl]carbonyl}amino)propanediamide] |
| 10 to 100 | CNC(=O)C(C(=O)NO)N(C)C(=O)c1ccc(C#Cc2ccc(CN(C)C3CCCCC3)cc2)cc1 (stereo not drawn) [Compound 327, 2-[({4-[(4-{[cyclohexyl(methyl)amino]methyl}phenyl)ethynyl]phenyl}carbonyl)(methyl)amino]-N-hydroxy-N′-methylpropanediamide] |
| 10 to 100 | CNC(=O)C(C(=O)NO)N(C)C(=O)c1ccc(C#Cc2cccc(CN3CCOCC3)c2)cc1 (stereo not drawn) [Compound 375, N-hydroxy-N′-methyl-2-{methyl[(4-{[3-(morpholin-4-ylmethyl)phenyl]ethynyl}phenyl)carbonyl]amino}propanediamide] |
| > 100 | CNC(=O)C(C(=O)NO)N(C)C(=O)c1ccc(-c2nc3ccccc3o2)cc1 (stereo not drawn) [Compound 347, 2-[{[4-(1,3-benzoxazol-2-yl)phenyl]carbonyl}(methyl)amino]-N-hydroxy-N′-methylpropanediamide] |
| < 10 | CNC(=O)C(C(=O)NO)N(C)C(=O)c1ccc(-c2ccc3c(c2)N(C)C(=O)CO3)cc1 (stereo not drawn) [Compound 82, N-hydroxy-N′-methyl-2-{methyl[4-(4-methyl-3-oxo-3,4-dihydro-2H-1,4-benzoxazin-6-yl)benzoyl]amino}propanediamide] |
| 10 to 100 | CNC(=O)C(C(=O)NO)N(C)C(=O)c1ccc(-c2ccc(N3CC(O)C3)cc2)cc1 (stereo not drawn) [Compound 244, N-hydroxy-2-[{[4′-(3-hydroxyazetidin-1-yl)biphenyl-4-yl]carbonyl}(methyl)amino]-N′-methylpropanediamide] |
| 10 to 100 | CNC(=O)C(C(=O)NO)N(C)C(=O)c1ccc(-c2ccc(N3CCOCC3)cc2)cc1 (stereo not drawn) [Compound 53, N-hydroxy-N′-methyl-2-(methyl {[4′-(morpholin-4-yl)biphenyl-4-yl]carbonyl}amino)propanediamide] |
| 10 to 100 | CNC(=O)C(C(=O)NO)N(C)C(=O)c1ccc(-c2ccc(NCCCN(C)Cc3ccccc3)cc2)cc1 (stereo not drawn) [Compound 97, 2-[{[4′-({3-[benzyl(methyl)amino]propyl}amino)biphenyl-4-yl]carbonyl}(methyl)amino]-N-hydroxy-N′-methylpropanediamide] |
| 10 to 100 | CC(C)NC(=O)C(NC(=O)c1ccc(-c2ccc(OCCO)cc2)cc1)C(=O)NO (stereo not drawn) [Compound 143, N-hydroxy-2-({[4′-(2-hydroxyethoxy)biphenyl-4-yl]carbonyl}amino)-N′-(propan-2-yl)propanediamide] |
| 10 to 100 | CNC(=O)C(C(=O)NO)N(C)C(=O)c1ccc(-c2ccc(OCc3ccc(C(=O)O)cc3)cc2)cc1 (stereo not drawn) [Compound 98, 4-{[(4′-{[1-(hydroxyamino)-3-(methylamino)-1,3-dioxopropan-2-yl](methyl)carbamoyl}biphenyl-4-yl)oxy]methyl}benzoate] |
| < 10 | CNC(=O)C(C(=O)NO)N(C)C(=O)c1ccc(-c2ccc(Cl)c(Cl)c2)cc1 (stereo not drawn) [Compound 224, 2-{[(3′,4′-dichlorobiphenyl-4-yl)carbonyl](methyl)amino}-N-hydroxy-N′-methylpropanediamide] |
| 10 to 100 | CNC(=O)C(C(=O)NO)N(C)C(=O)c1ccc(C2CCCCC2)cc1 (stereo not drawn) [Compound 30, 2-[(4-cyclohexylbenzoyl)(methyl)amino]-N-hydroxy-N′-methylpropanediamide] |

These compounds were tested on Pseudomonas aeruginosa strain TS88 (clinical isolate) (assay: Antimicrobial activity, MIC by broth microdilution). Conditions: Table 1, 35° C., 18 hours, read-out: MIC Pseudomonas aeruginosa TS88 strain.
Format: cell-based
Excerpt: Test 3: Evaluation of Antimicrobial Activity For minimum inhibitory concentration (MIC) measurement, the following broth microdilution method was applied as adapted from the standard procedure recommended by the CLSI (Clinical and Laboratory Standards Institute). The bacteria used were Pseudomonas aeruginosa strain TS88 (clinical isolate), E. coli strain ATCC25922, and Klebsiella pneumoniae strain ATCC13883. After culture overnight on a heart infusion agar medium, the cells of a test bacterium were scraped off and suspended to give a turbidity of level 0.5 on the McFarland scale; the suspension was then diluted 10 fold to prepare an inoculum solution. A 0.005 mL aliquot of the inoculum solution was inoculated in a cation-adjusted Mueller-Hinton broth medium containing a test compound and cultured at 35° C. for 18 hours. A minimum drug concentration at which no cell growth was visible to the naked eye was designated as MIC.

| SMILES | MIC [µg/mL] |
| --- | --- |
| CNC(=O)C(C(=O)NO)N(C)C(=O)c1ccc(-c2ccc(C)cc2)cc1 (stereo not drawn) [Compound 5, N-hydroxy-N′-methyl-2-{methyl[(4′-methylbiphenyl-4-yl)carbonyl]amino}propanediamide] | 0.25 (≈ 0.703 µM) |
| CNC(=O)C(C(=O)NO)N(C)C(=O)c1ccc(-c2ccc3c(c2)CCN3C)cc1 (stereo not drawn) [Compound 40, N-hydroxy-N′-methyl-2-{methyl[4-(1-methyl-2,3-dihydro-1H-indol-5-yl)benzoyl]amino}propanediamide] | 1 (≈ 2.52 µM) |
| CNC(=O)C(C(=O)NO)N(C)C(=O)c1ccc(-c2ccc(C(F)(F)F)cc2)cc1 (stereo not drawn) [Compound 56, N-hydroxy-N′-methyl-2-(methyl {[4′-(trifluoromethyl)biphenyl-4-yl]carbonyl}amino)propanediamide] | 1 (≈ 2.44 µM) |
| CNC(=O)C(C(=O)NO)N(C)C(=O)c1ccc(-c2ccc(NCCCCCN3CCOCC3)cc2)cc1 (stereo not drawn) [Compound 58, N-hydroxy-N′-methyl-2-{methyl[(4′-{[5-(morpholin-4-yl)pentyl]amino}biphenyl-4-yl)carbonyl]amino}propanediamide] | 4 (≈ 7.82 µM) |
| CNC(=O)C(C(=O)NO)N(C)C(=O)c1ccc(-c2ccc3c(c2)OCC3)cc1 (stereo not drawn) [Compound 271, 2-{[4-(2,3-dihydro-1-benzofuran-6-yl)benzoyl](methyl)amino}-N-hydroxy-N′-methylpropanediamide] | 0.5 (≈ 1.3 µM) |
| CNC(=O)C(C(=O)NO)N(C)C(=O)c1ccc(-c2ccc(OCCCN3CCOCC3)cc2)cc1 (stereo not drawn) [Compound 7, N-hydroxy-N′-methyl-2-[methyl({4′-[3-(morpholin-4-yl)propoxy]biphenyl-4-yl}carbonyl)amino]propanediamide] | 2 (≈ 4.13 µM) |
| CNC(=O)C(C(=O)NO)N(C)C(=O)c1ccc(-c2ccc(OCCCN3CCOCC3)cc2)cc1.Cc1ccc(S(=O)(=O)O)cc1 (stereo not drawn) [Compound 7b, N-hydroxy-N′-methyl-2-[methyl({4′-[3-(morpholin-4-yl)propoxy]biphenyl-4-yl}carbonyl)amino]propanediamide 4-methylbenzenesulfonate] | 2 |
